In patent publication US9062048B2, “Cyclohexyl-azetidinyl antagonists of CCR2” (Janssen Pharmaceutica NV, priority 2010, dated 2015):
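Note: THP-1 is a human monocytic cell line, and nonspecific binding was defined with 1 µM unlabeled MCP-1.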

Each molecule was assayed against CCR2 (Homo sapiens (Human), UniProt P41597) (assay: MCP-1 Receptor Binding Assay in THP-1 Cells). Conditions: 0.5 nM 125I labeled MCP-1, 2 hours at 30° C., read-out: Inhibition of MCP-1 Binding IC50 MCP1B.
CCR2, sequence (P41597 whole entry): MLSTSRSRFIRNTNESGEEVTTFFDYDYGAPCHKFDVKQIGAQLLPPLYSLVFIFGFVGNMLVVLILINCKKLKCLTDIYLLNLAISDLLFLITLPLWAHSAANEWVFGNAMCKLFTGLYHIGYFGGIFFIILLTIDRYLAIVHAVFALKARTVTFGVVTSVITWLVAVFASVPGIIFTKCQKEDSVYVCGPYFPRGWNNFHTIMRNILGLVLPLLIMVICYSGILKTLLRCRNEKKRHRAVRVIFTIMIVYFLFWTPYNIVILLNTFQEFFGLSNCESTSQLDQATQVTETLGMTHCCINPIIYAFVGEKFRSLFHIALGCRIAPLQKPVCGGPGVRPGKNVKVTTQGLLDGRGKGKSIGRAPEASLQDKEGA
For CCCC(=O)N(C)[C@H]1CC[C@@H](N2CC(NC(=O)CNc3ncnc4ccc(C(F)(F)F)cc34)C2)CC1 [Example 46, N-methyl-N-((1s,4s)-4-(3-(2-((6-(trifluoromethyl)quinazolin-4-yl)amino)acetamido)azetidin-1-yl)cyclohexyl)butyramide], the IC50 was 810 nM.
CC(C)C(=O)N(C)[C@H]1CC[C@@H](N2CC(NC(=O)CNc3ncnc4ccc(C(F)(F)F)cc34)C2)CC1 [Example 43] was tested, and the IC50 was 510 nM.
O=C(CNc1ncnc2ccc(C(F)(F)F)cc12)NC1CN([C@H]2CC[C@@H]([C@@H](O)C3CC3)CC2)C1 [(−) 4, N-(1-((1S,4s)-4-(cyclopropyl(hydroxy)methyl)cyclohexyl)azetidin-3-yl)-2-((6-(trifluoromethyl)quinazolin-4-yl)amino)acetamide] was tested, and the IC50 was 8 nM.
COCC[C@H]1CC[C@@H](N2CC(NC(=O)CNc3ncnc4ccc(C(F)(F)F)cc34)C2)CC1 [Example 121, N-(1-((1s,4s)-4-(2-methoxyethyl)cyclohexyl)azetidin-3-yl)-2-((6-(trifluoromethyl)quinazolin-4-yl)amino)acetamide] was tested, and the IC50 was 98 nM.
CC(=O)N(C[C@H]1CC[C@@H](N2CC(NC(=O)CNc3ncnc4ccc(C(F)(F)F)cc34)C2)CC1)C(C)C [Example 115] was tested, and the IC50 was 340 nM.
CCCC(O)[C@H]1CC[C@@H](N2CC(NC(=O)CNc3ncnc4ccc(C(F)(F)F)cc34)C2)CC1 (stereo partly drawn) [Example 90, N-(1-((1S,4s)-4-(1-hydroxybutyl)cyclohexyl)azetidin-3-yl)-2-((6-(trifluoromethyl)quinazolin-4-yl)amino)acetamide] gave an IC50 of 13 nM.
For O=C(CNc1ncnc2ccc(C(F)(F)F)cc12)NC1CN([C@H]2CC[C@@H](N3C(=O)CCC3=O)CC2)C1 [Example 57, N-(1-((1s,4s)-4-(2,5-dioxopyrrolidin-1-yl)cyclohexyl)azetidin-3-yl)-2-((6-(trifluoromethyl)quinazolin-4-yl)amino)acetamide], the IC50 was 280 nM.
O=C(CNc1ncnc2ccc(C(F)(F)F)cc12)NC1CN([C@H]2CC[C@@H](N3CCC(F)(F)C3)CC2)C1 [Example 131, N-(1-((1s,4s)-4-(3,3-difluoropyrrolidin-1-yl)cyclohexyl)azetidin-3-yl)-2-((6-(trifluoromethyl)quinazolin-4-yl)amino)acetamide] gave an IC50 of 300 nM.
[N-]=[N+]=NCC(O)[C@H]1CC[C@@H](N2CC(NC(=O)CNc3ncnc4ccc(C(F)(F)F)cc34)C2)CC1 (stereo partly drawn) [Example 19, N-(1-((1S,4s)-4-(2-azido-1-hydroxyethyl)cyclohexyl)azetidin-3-yl)-2-((6-(trifluoromethyl)quinazolin-4-yl)amino)acetamide] showed an IC50 of 16 nM.
O=C(CNc1cc(C(F)(F)F)nc2ccc(C(F)(F)F)cc12)NC1CN([C@H]2CC[C@@](O)(c3nccs3)CC2)C1 [Example 24, 2-((2,6-bis(trifluoromethyl)quinolin-4-yl)amino)-N-(1((1r-4r)-4-hydroxy-4-(thiazol-2-yl)cyclohexyl)azetidin-3-yl)acetamide] showed an IC50 of 28 nM.
O=C(CNc1ncnc2ccc(C(F)(F)F)cc12)NC1CN([C@H]2CC[C@@H](C3(O)CC=CC3)CC2)C1 [Example 28] was tested, and the IC50 was 23 nM.
Molecule N#Cc1cc(NCC(=O)NC2CN([C@H]3CC[C@@H](n4ccccc4=O)CC3)C2)c2cc(C(F)(F)F)ccc2n1 [Example 60, 2-((2-cyano-6-(trifluoromethyl)quinolin-4-yl)amino)-N-(1-((1s,4s)-4-(2-oxopyridin-1(2H)-yl)cyclohexyl)azetidin-3-yl)acetamide] has an IC50 of 40 nM.
CCC(O)[C@H]1CC[C@@H](N2CC(NC(=O)CNc3nccc4ccc(C(F)(F)C(F)(F)F)cc34)C2)CC1 (stereo partly drawn) [Example 170, N-(1-((1R,4s)-4-(1-hydroxypropyl)cyclohexyl)azetidin-3-yl)-2-((7-(perfluoroethyl)isoquinolin-1-yl)amino)acetamide] was tested, and the IC50 was 72 nM.
CN(C)C(=O)OC[C@H]1CC[C@@H](N2CC(NC(=O)CNc3ncnc4ccc(C(F)(F)F)cc34)C2)CC1 [Example 124, ((1s,4s)-4-(3-(2-((6-(trifluoromethyl)quinazolin-4-yl)amino)acetamido)azetidin-1-yl)cyclohexyl)methyl dimethylcarbamate] was tested, and the IC50 was 210 nM.
For O=C(CNc1ncnc2ccc(C(F)(F)F)cc12)NC1CN([C@H]2CC[C@@H](CN3CCCCC3=O)CC2)C1 [Example 54, N-(1-((1s,4s)-4-((2-oxopiperidin-1-yl)methyl)cyclohexyl)azetidin-3-yl)-2-((6-(trifluoromethyl)quinazolin-4-yl)amino)acetamide], the IC50 was 720 nM.
For O=C(CNc1ccnc2ccc(C(F)(F)F)cc12)NC1CN([C@H]2CC[C@@](O)(c3nccs3)CC2)C1 [Example 27], the IC50 was 17 nM.
COc1ccc(CNC(=O)C2CCC(N3CC(NC(=O)CNc4ncnc5ccc(C(F)(F)F)cc45)C3)CC2)c(OC)c1 (centres unmarked) [Example 129, N-(2,4-dimethoxybenzyl)-4-(3-(2-((6-(trifluoromethyl)quinazolin-4-yl)amino)acetamido)azetidin-1-yl)cyclohexanecarboxamide] gave an IC50 of 390 nM.
Work on O=C(CNc1ccnc2ccc(C(F)(F)F)cc12)NC1CN([C@H]2CC[C@@H](n3ccccc3=O)CC2)C1 [Example 58, N-(1-((1s,4s)-4-(2-oxopyridin-1(2H)-yl)cyclohexyl)azetidin-3-yl)-2-((6-(trifluoromethyl)quinolin-4-yl)amino)acetamide] yielded an IC50 of 91 nM.
Work on CC(C)C(O)[C@H]1CC[C@@H](N2CC(NC(=O)CNc3nccc4ccc(C(F)(F)F)cc34)C2)CC1 (some centres unmarked) [Example 169] yielded an IC50 of 35 nM.
Work on O=C(CNc1ncnc2ccc(C(F)(F)F)cc12)NC1CN([C@H]2CC[C@@H](CCO)CC2)C1 [Example 108, N-(1-((1s,4s)-4-(2-hydroxyethyl)cyclohexyl)azetidin-3-yl)-2-((6-(trifluoromethyl)quinazolin-4-yl)amino)acetamide] yielded an IC50 of 19 nM.
For CC[C@H](O)C1CCC(N2CC(NC(=O)CNc3nccc4ccc(C(F)(F)F)cc34)C2)CC1 (some centres unmarked) [Example 168], the IC50 was greater than 25000 nM.
O=C(CNc1ncnc2ccc(C(F)(F)F)cc12)NC1CN(C2CCCCC2)C1 [Example 101, N-(1-cyclohexylazetidin-3-yl)-2-((6-(trifluoromethyl)quinazolin-4-yl)amino)acetamide] was tested, and the IC50 was 63 nM.
Molecule N#Cc1cc(NCC(=O)N[C@H]2C[C@H](N3CCC(O)(c4cncs4)CC3)C2)c2cc(C(F)(F)F)ccc2n1 [Example 164, 2-((2-cyano-6-(trifluoromethyl)quinolin-4-yl)amino)-N-((1r,3r)-3-(4-hydroxy-4-(thiazol-5-yl)piperidin-1-yl)cyclobutyl)acetamide] has an IC50 greater than 25000 nM.
For CC(C)C(O)[C@H]1CC[C@@H](N2CC(NC(=O)CNc3cnnc4ccc(C(F)(F)F)cc34)C2)CC1 (stereo partly drawn) [Example 157, N-(1-((1R,4s)-4-((S)-1-hydroxy-2-methylpropyl)cyclohexyl)azetidin-3-yl)-2-((6-(trifluoromethyl)cinnolin-4-yl)amino)acetamide], the IC50 was 530 nM.
Molecule CCC(NC(=O)N(C)C)[C@H]1CC[C@@H](N2CC(NC(=O)CNc3ncnc4ccc(C(F)(F)F)cc34)C2)CC1 (stereo partly drawn) [Example 143, N-(1-((1R,4s)-4-((S)-1-(3,3-dimethylureido)propyl)cyclohexyl)azetidin-3-yl)-2-((6-(trifluoromethyl)quinazolin-4-yl)amino)acetamide] has an IC50 of 13800 nM.
Molecule CCN(C(=O)OCc1ccccc1)[C@H]1CC[C@@H](N2CC(NC(=O)CNc3ncnc4ccc(C(F)(F)F)cc34)C2)CC1 [Example 47, Benzyl ethyl((1s,4s)-4-(3-(2-((6-(trifluoromethyl)quinazolin-4-yl)amino)acetamido)azetidin-1-yl)cyclohexyl)carbamate] has an IC50 of 160 nM.
